In patent publication US12486218B2, “Compounds advantageous in the treatment of central nervous system diseases and disorders” (AurimMed Pharma, Inc., priority 2008, dated 2025):
Blank lines part the entries; values can stand above or below the compound they belong to.

Legend:
mice [1] = experiment: Effects observed in mice after i.p. injection (CNS stimulation, diarrhea); assay type: in vivo; conditions: 30 minutes after i.p. injection of 100 mg/kg
Description: In addition, two further tertiary amide compounds, BJ and BT, produced diarrhea in the mice 30 minutes after i.p. injection of 100 mg/kg of each.

[2] = tested on: rat dopaminergic N27 cells; experiment: N27 protection assay against oxidative stress (H2O2 or MPP+; MTT and LDH); assay type: cell-based; conditions: drug 24 hours before 200 μM H2O2 or 640 μM MPP+
From the text: FIGS. 20A-25D data are shown illustrating neuroprotective and neuroregenerative effects observed in rat dopaminergic N27 cells. Rat dopaminergic N27 cells are commonly used in in vitro and in vivo model systems for studying Parkinson's disease. Parkinson's disease is a neurodegenerative disorder of the central nervous system that affects more than 6 million people worldwide. The motor symptoms of Parkinson's disease result from the death of dopamine generating cells in the substantia nigra, a region of the midbrain.
The N27 rat dopaminergic neuron cell line was harvested from E12 rat mesencephalic tissue and was transfected with SV40 to immortalize the cell line. The N27 cell line, when injected into the striata of 6-hydroxydopamine-lesioned rats (an animal model of PD) caused a time-dependent improvement in neurological deficits. This immortalized cell line has been carefully characterized in studies of dopamine biosynthesis, neurotoxicity and used as a dopaminergic neuron model studies.
The N27 in vitro Parkinson's disease model included a test of cell viability and cell toxicity in response to exposure to oxidative stress (e.g., either 200 μM H2O2 or 640 μM MPP+).
Cell viability was tested using the MTT assay. The MTT assay is a colorimetric analysis based on the activities of mitochondrial NAD(P)H-dependent cellular oxidoreductase enzymes. These enzymes are capable of reducing the tetrazolium dye, MTT [3-(4,5-dimethylthiazol-2-yl)-2,5-diphenyltetrazolium] bromide, to an insoluble formazan (purple). […] More viable cells equal more accumulation of the insoluble formazan dye.
Cell toxicity was tested using the […] (LDH) assay. Cells that are stressed secrete LDH. In general, the more cells are stressed, the LDH they secrete into their media. The LDH assay is a reliable colorimetric assay to measure quantitatively the […] (LDH) that is released into the cell culture media from damaged cells as a biomarker for cytotoxicity and cytolysis.
FIGS. 20A-25D present data from two types of assays: protection and recovery assays. In the protection assays, the drug candidate was applied to the cells at various concentrations for 24 hours, followed by the exposure to oxidative stress (either 200 μM H2O2 or 640 μM MPP+) for measuring neuroprotective effect. H2O2 provides a broad measure of oxidative stress, while MPP+ gives a more specific oxidative stress to dopaminergic neurons.
The protection assay results are shown in panels A-C of FIGS. 20-25 In the recovery assays, the cells were first damaged by exposure to H2O2 and then various concentrations of the drug were applied to the cells. The results for the recovery assays are shown the D panels of FIGS. 20-25.

mice [3] = experiment: 6 Hz (minimal clonic seizure) model, mice i.p.; assay type: in vivo; conditions: for ED50: Mus musculus, ip
[4] = tested on: type II SMA fibroblasts (GM03813); experiment: SMN protein localization, gem counting in type II SMA fibroblasts; assay type: cell-based; conditions: 100 nM-10 μM, 5 days
Description: To validate the SMN2 promoter and exon 7 screens, the effects of compounds H, H (acid form), AY, F, BX, and BY were evaluated on the basis of expression and localization of SMN protein in type II SMA fibroblasts (GM03813). In a normal cell, SMN protein localized within the nucleus to discreet foci known as gems. In SMN-deficient SMA cells, the number of gems is greatly diminished. Although the function of gems is unknown, it is believed that they are somehow involved in the snRNP assembly function of SMN. Gem counting can, therefore, be considered an assay for SMN function.
GM03813 fibroblasts were treated with different doses (100 nM-10 μM) of compounds H, H (acid form), AY, F, BX, and BY for 5 days. SMN immunostaining was then completed on these cells and the number of gems was counted in 100 randomly-selected nuclei. […] In fact, the gem counts at the highest dose of compound H approach those observed for carrier fibroblasts (GM03814). When compared against treatment with 1 μM D157495—a D156844 derivative, all of the compounds tested performed as well as or, even better than D157495.

rats [5] = experiment: s.c. MET test, rats p.o.; assay type: in vivo; conditions: Rattus norvegicus, p.o.
rats [6] = experiment: Hippocampal Kindled Rats model; assay type: in vivo; conditions: Rattus norvegicus
mice [7] = experiment: Minimal motor impairment (MID50), mice i.p.; conditions: for MID50 (median minimal motor impairment dose): mice, i.p.
in vivo = conditions: mouse, ip
mice [8] = experiment: Audiogenic Seizure susceptible (AGS) test, mice i.p.; assay type: in vivo; conditions: Mus musculus, ip
C3A hepatocyte cells [9] = experiment: ACTIVTox LDH release assay; assay type: cell-based; conditions: for LDH release, mean fold control: at 100 μM, C3A hepatocyte cells, value below 1.75 = no cyto- or hepatotoxic activity; for cyto- or hepatotoxicity, ACTIVTox data: at physiologically relevant concentrations (i.e., <100 µM)
Description: Compounds A, I, H, and F were tested by Stem Cell Innovations, Inc. (Houston, TX) in their ACTIVTox® Human Liver Cell-based assays (using C3A hepatocyte cells). Specifically, the compounds were tested in the LDH release assay, which determines the release of Lactate DeHydrogenase (an indicator of cell death) at various concentrations of test compound.
A concentration of 100 µM of test compound is a much higher level of exposure to liver cells than would ever be expected under physiological conditions. Therefore, using 100 μM as a standard test concentration (for comparative purposes), the ratio of the absorbance (which measures the level of LDH release) resulting from the presence of the test compound versus the negative control is a value known as the “average (or mean) fold control” (Average Fold Control=Average of Absorbance/Average of Negative Control).

rats [10] = experiment: Pilocarpine-induced Status Epilepticus in Rats (prevention; intervention @ 30 min); conditions: Rattus norvegicus; for responders at 65 mg/kg: read-out: Prevention, Protection
mice [11] = experiment: Subcutaneous Metrazol Seizure threshold (s.c. MET) test, mice i.p.; assay type: in vivo; conditions: for ED50: Mus musculus
mice [12] = experiment: Corneal kindled mouse model; assay type: in vivo; conditions: for ED50: Mus musculus
rats [13] = experiment: Minimal motor impairment (MID50), rats p.o.; assay type: in vivo
rats [14] = experiment: MES test, rats p.o.; assay type: in vivo
mice [15] = experiment: Maximal Electroshock Seizure (MES) test, mice i.p.; assay type: in vivo; conditions: for ED50: Mus musculus, ip
mice [16] = experiment: Mouse formalin pain model; assay type: in vivo; conditions: 76 mg/kg i.p., at 0.5 hours
C3A hepatocyte cells [17] = experiment: ACTIVTox Cell Proliferation Assay; assay type: cell-based; conditions: at a concentration of 100 μM

- effect produced in the mice (mice [1]): diarrhea
SMILES: CC(CC(=O)N1CCCC(C(N)=O)C1)c1ccc(OC(F)(F)F)cc1 (stereo not drawn) [BT, 1-[3-(4-Trifluoromethoxy-phenyl)-butyryl]-piperidine-3-carboxylic acid amide]

SMILES: CC(CC(N)=O)c1ccc(C(F)(F)F)cc1 (stereo not drawn) [F, 3-[4-(trifluoromethyl)-phenyl]butyramide]
- neuroprotective effect against H2O2 and MPP+ oxidative stresses (MTT and LDH assays) [2]: statistically significant, dose-dependent neuroprotection
- ED50 (mice [3]; mice i.p., @ 0.5 hrs, read-out: 6 Hz (32 mA) ED50): 80.8 mg/kg
- ED50 (mice [3]; mice, i.p., read-out: 6 Hz ED50): 80.8 mg/kg
- gem counts (SMN immunostaining, 100 nuclei) [4]: increase gem counts in a dose-dependent manner
- ED50 (rats [5]): > 250 mg/kg
- ED50 (rats [6]): 29 mg/kg
- MID50 (TD50) (mice [7]; mice i.p., @ 0.25 hr): 208.37
- MID50 (median minimal motor impairment dose) (mice [7]): 208.37 mg/kg
- TD50 (in vivo): > 200 mg/kg
- ED50 (mice [8]; mice): 41.3 mg/kg
- ED50 (mice [8]; mice i.p., @ 2.0 hrs): 41.3 mg/kg
- LDH release, mean fold control (C3A hepatocyte cells [9]): 1.47
- cyto- or hepatotoxicity, ACTIVTox data (C3A hepatocyte cells [9]): not cyto- or hepatotoxic
- responders at 65 mg/kg (rats [10]): 14%
- ED50 (mice [11]; mice i.p., @ 1.0 hr): 85.5 mg/kg
- ED50 (mice [11]; mice, i.p.): 85.5 mg/kg
- ED50 (mice [12]; ip, mice i.p., @1.0 hrs, read-out: Corneal Kindled ED50): 60.6 mg/kg
- ED50 (mice [12]; read-out: ED50, corneal kindled mouse model): 60.6 mg/kg
- seizure score, corneal kindled mouse model (mice [12]; at 100 mg/kg): zero
- MID50 (rats [13]): >500 (none observed) mg/kg
- ED50 (rats [14]; Rattus norvegicus, po): 26.4 mg/kg
- ED50 (mice [15]; mice): 85.3 mg/kg
- ED50 (mice [15]; mice i.p., @ 2.0 hrs): 85.3 mg/kg

SMILES: C[C@@H](CC(N)=O)c1ccc(OC(F)(F)F)cc1 (single isomer, unassigned) [BY, S-(+)-3-(4-Trifluoromethoxy-phenyl)butyramide]
- neuroprotective effect against H2O2 and MPP+ oxidative stresses (MTT and LDH assays) [2]: potent dose-dependent neuroprotective effects
- 6 Hz (32 mA), fraction of animals (mice [3]; mice i.p., 100 mg/kg @ 0.25 hr): 1/4
- 6 Hz (32 mA), fraction of animals (mice [3]; mice i.p., 100 mg/kg @ 0.5 hr): 2/4
- gem counts (SMN immunostaining, 100 nuclei) [4]: increase gem counts in a dose-dependent manner
- TD50 at 0.25 hr (in vivo): 104 mg/kg
- pain response, acute phase (mice [16]): 53 % of the control
- pain response, inflammatory phase (mice [16]): 24 % of the control

SMILES: CC(CC(N)=O)c1cccc(OC(F)(F)F)c1 (stereo not drawn) [I, 3-[3-(trifluoromethoxy)-phenyl]butyramide]
- 6 Hz (32 mA), fraction of animals (mice [3]; mice i.p., 50 mg/kg @ 0.25 hr): 3/4
- 6 Hz (32 mA), fraction of animals (mice [3]; mice i.p., 50 mg/kg @ 0.5 hr): 2/4
- 6 Hz (32 mA), fraction of animals (mice [3]; mice i.p., 100 mg/kg @ 4.0 hr): 2.0 and 1/4
- Cell Proliferation Assay, mean fold control (C3A hepatocyte cells [17]): 1.25
- toxicity to proliferating cells (C3A hepatocyte cells [17]): non-toxic
- MID50, fraction of animals (mice [7]; mice i.p., 100 mg/kg @ 0.5 hr): 8/8 @0.50 hr,
- MID50 (median minimal motor impairment dose) (mice [7]): <100 mg/kg
- LDH release, mean fold control (C3A hepatocyte cells [9]): 1.03
- cyto- or hepatotoxicity, ACTIVTox data (C3A hepatocyte cells [9]): not cyto- or hepatotoxic
- responders at 130 mg/kg (rats [10]; 0.5 h, read-out: Intervention @ 30 min, Protection): 100%
- responders at 65 mg/kg (rats [10]): 86%
- ED50 (mice [11]; mice, i.p.): ≤ 100 mg/kg
- s.c. MET, fraction of animals (mice [11]; mice i.p., 100 mg/kg @ 0.5 hr): 1/1 @0.5,
- s.c. MET, fraction of animals (mice [11]; mice i.p., 100 mg/kg @ 4.0 hr): 1/5 @ 4.0 hr
- Corneal Kindled, Average seizure score (mice [12]; mice i.p., 100 mg/kg @ 0.5 hr): score is 0:
- Corneal Kindled, fraction of animals (mice [12]; mice i.p., 100 mg/kg @ 0.5 hr): 4/4 @
- activity in the MES test (rats [14]; at 30 mg/kg): activity
- ED50 (mice [15]; mice): < 100 mg/kg
- MES, fraction of animals (mice [15]; mice i.p., 100 mg/kg @ 0.5 hr): 3/3 @0.5,
- MES, fraction of animals (mice [15]; mice i.p., 100 mg/kg @ 4.0 hr): 3/3 @ 4.0 hr
